Source: US11701382B2, “Treatment of post-operative joint pain with polysulfated polysaccharides” (PARADIGM BIOPHARMACEUTICALS LTD., priority 2018, dated 2023)

Assays:
Format in all cases: in vivo, human
[1] = tested on: patient with left knee osteoarthritis and persistent right knee pain following TKR; assay: Safety and tolerability (adverse events) of PPS under TGA SAS(B); settings: PPS 2 mg/kg SC twice weekly for 3 weeks, one patient
Experimental: (§1) Example 1 is a study of the safety, tolerability and result of a patient treated with PPS suffering from degenerative osteoarthritis in the left knee with bone marrow edema lesions (BMEL), as assessed by magnetic resonance imaging (MRI), and from persistent pain following total right knee arthroplasty.
The patient was treated with PPS under the TGA Special Access Scheme (B). (Approval to use PPS as treatment for the patient was acquired from Department of Health—Therapeutic Goods Administration, Australian Government under the Special Access Scheme (SAS) since the injectable form of PPS was not a registered product in Australia.)
(§2) They were treated with PPS. The treatment regimen consisted of administration of PPS, at a preferred dose of 2 mg/kg of body weight, twice weekly for three weeks by subcutaneous injection (total of six injections).

[2] = tested on: patient with degenerative osteoarthritis in the left knee; assay: Lysholm Knee Score (knee function), left knee, patient treated with PPS; settings: left knee (degenerative OA); PPS 2 mg/kg SC twice weekly for 3 weeks; 0-100 scale; before PPS 58
Description: as §1
(§3) The patient had end stage osteroarthrtis (OA) in their right knee. They underwent a total knee replacement (TKR) in the right knee and had aseptic, persistent pain from that joint post replacement. They also had pain in their left knee (degenerative osteoarthritis) and was recommended to have a TKR in that joint.
as §2
(§4) The protocol featured the following: • Treatment regimen: 2× weekly subcutaneous injections of PPS (preferred dose 2 mg/kg) for 3 weeks (total of 6 injections)
Lysholm Knee Score is a total score of 0-100 is calculated based on the results from the eight functional components of the Lysholm knee score scale: Limp (5 points), Support (5 points), Locking (15 points), Instability (25 points), Pain (25 points), Swelling (10 points), Stair climbing (10 points), and Squatting (5 points). […]

[3] = tested on: patient with persistent pain following total right knee arthroplasty; assay: Aseptic, persistent post-operative pain in right artificial knee joint after total knee replacement, patient treated with PPS; settings: PPS 2 mg/kg SC twice weekly for 3 weeks
Description: as §1, §3, §2, §4

[4] = tested on: patient with degenerative osteoarthritis in the left knee; assay: Numerical Rating Scale (NRS) pain score, left knee with degenerative osteoarthritis, patient treated with PPS; settings: left knee (degenerative OA); PPS 2 mg/kg SC twice weekly for 3 weeks (6 injections); 0-10 scale; before PPS 8
Description: as §1, §3, §2, §4
Numerical Rating Scale (NRS) is an 11-point scale (0-10). A state of no pain is 0 and the worst pain imaginable is 10.

[5] = tested on: patient with degenerative osteoarthritis in the left knee with bone marrow edema lesions; assay: Bone marrow edema lesions (BMEL) assessed by MRI, left knee, patient treated with PPS
Description: as §1, §3, §2, §4

With Pentosan polysulfate [PPS] the adverse events [1] was “no adverse events were reported”, the “After PPS/Lysholm Knee Score” value [2] was 99 and the “aseptic, persistent pain in the right artificial joint” value [3] was “zero”. The “After PPS/NRS Pain” value [4] was 0, the “BMEL reduction as assessed by magnetic resonance imaging” value ([5]; PPS 2 mg/kg SC twice weekly for 3 weeks) was “clearly visible BMEL reduction” and the “bone marrow edema stage, post-treatment MRI” value ([5]; after PPS, at baseline up to two thirds) was “negligible”.
